Test results taken from US9408387B2, “Safening 6-amino-2-(substituted phenyl)-5-substituted-4-pyrimidinecarboxylate herbicide injury on cereal crops” (Dow AgroSciences LLC, priority 2009, dated 2016).

What was measured:
Format in all cases: in vivo
Conditions in all cases: CQC-M 0
[1] = tested on: spring wheat (Triticum aestivum L; TRZAS); assay: Postemergence herbicidal safening in cereal crops, greenhouse, visual injury: spring wheat
Procedure: (§1) Evaluation of Postemergence Herbicidal Safening in Cereal Crops
(§2) Seeds of the desired test plant species were planted in Sun Gro MetroMix® 306 planting mixture, which typically has a pH of 6.0 to 6.8 and an organic matter content of about 30 percent, in plastic pots with a surface area of 103.2 square centimeters (cm^2). When required to ensure good germination and healthy plants, a fungicide treatment and/or other chemical or physical treatment was applied. The plants were grown for 7-36 days (d) in a greenhouse with an approximate 14-hour (h) photoperiod which was maintained at about 18° C. during the day and 17° C. during the night. Nutrients and water were added on a regular basis and supplemental lighting was provided with overhead metal halide 1000-Watt lamps as necessary. The plants were employed for testing when they reached the second or third true leaf stage.
(§3) Treatments consisted of the acids or esters of compounds 1-10 and cloquintocet-mexyl (CQC-M), fenchlorazole-ethyl, mefenpyr-diethyl alone and in combination. Weighed amounts of acid or methyl esters of the compounds of formula (I) were dissolved in a volume of 97:3 v/v acetone/dimethylsulfoxide (DMSO) to obtain concentrated solutions. […] The concentrated solutions of the test compound were diluted with the addition of an aqueous mixture containing acetone, water, isopropyl alcohol, DMSO, Agri-Dex crop oil concentrate, and Triton® X-77 surfactant in a 64.7:26.0:6.7:2.0:0.7:0.01 v/v ratio. Test compounds were diluted to the appropriate application rate with a dilution solution which was prepared by mixing the appropriate volume of 97:3 v/v acetone/DMSO and the appropriate volume of an aqueous mixture containing acetone, water, isopropyl alcohol, DMSO, Agri-Dex crop oil concentrate, and Triton® X-77 surfactant in a 64.7:26.0:6.7:2.0:0.7:0.01 v/v ratio. Compound requirements are based upon a 12 mL application volume at a rate of 187 liters per hectare (L/ha). The concentrated solutions of the safener were prepared following the same procedure. Weighed amounts of safener were dissolved in a volume of 97:3 v/v acetone/DMSO to obtain concentrated safener solutions.
(§4) Spray solutions of the herbicide safener and test compound mixtures were prepared by adding the concentrated solutions to the appropriate amount of dilution solution to form 12 mL spray solution with active ingredients in combinations.
(§5) Formulated compounds were applied to the plant material with an overhead Mandel track sprayer equipped with 8002E nozzles calibrated to deliver 187 L/ha over an application area of 0.503 square meters (m^2) at a spray height of 18 inches (43 centimeters (cm)) above average plant canopy. Control plants were sprayed in the same manner with the solvent blank.
(§6) The treated plants and control plants were placed in a greenhouse as described above and watered by sub-irrigation to prevent wash-off of the test compounds. After 20-22 d, the condition of the test plants as compared with that of the control plants was determined visually and scored on a scale of 0 to 100 percent where 0 corresponds to no injury and 100 corresponds to complete kill.
(§7) Colby's equation was used to determine the herbicidal effects expected from the mixtures (Colby, S. R. Calculation of the synergistic and antagonistic response of herbicide combinations. Weeds 1967, 15, 20-22.).
(§8) The following equation was used to calculate the expected activity of mixtures containing two active ingredients, A and B: Expected=A+B−(A×B/100)
(§9) A=observed efficacy of active ingredient A at the same concentration as used in the mixture.
(§10) B=observed efficacy of active ingredient B at the same concentration as used in the mixture.

[2] = tested on: spring barley (Hordeum vulgare L; HORVS); assay: Postemergence herbicidal safening in cereal crops, greenhouse, visual injury: spring barley
Procedure: as §1, §2, §3, §4, §5, §6, §7, §8, §9, §10

[3] = tested on: purple deadnettle (Lamium purpureum L; LAMPU); assay: Postemergence herbicidal activity, greenhouse, visual injury: purple deadnettle
Procedure: as §1, §2, §3, §4, §5, §6, §7, §8, §9, §10

[4] = tested on: kochia (Kochia scoparia L; KCHSC); assay: Postemergence herbicidal activity, greenhouse, visual injury: kochia
Procedure: as §1, §2, §3, §4, §5, §6, §7, §8, §9, §10

[5] = tested on: corn poppy (Papaver rhoeas L; PAPRH); assay: Postemergence herbicidal activity, greenhouse, visual injury: corn poppy
Procedure: as §1, §2, §3, §4, §5, §6, §7, §8, §9, §10

[6] = tested on: bird's-eye speedwell (Veronica persica L; VERPE); assay: Postemergence herbicidal activity, greenhouse, visual injury: bird's-eye speedwell
Procedure: as §1, §2, §3, §4, §5, §6, §7, §8, §9, §10

CIRAR = assay: Postemergence herbicidal activity, greenhouse, visual injury: CIRAR
Procedure: as §1, §2, §3, §4, §5, §6, §7, §8, §9, §10

SASKR = assay: Postemergence herbicidal activity, greenhouse, visual injury: SASKR
Procedure: as §1, §2, §3, §4, §5, §6, §7, §8, §9, §10

MATCH = assay: Postemergence herbicidal activity, greenhouse, visual injury: MATCH
Procedure: as §1, §2, §3, §4, §5, §6, §7, §8, §9, §10

[7] = tested on: wild mustard (Sinapis arvensis L.; SINAR); assay: Postemergence herbicidal activity, greenhouse, visual injury: SINAR
[8] = tested on: wild pansy (Viola tricolor; VIOTR); assay: Postemergence herbicidal activity, greenhouse, visual injury: VIOTR

Question: How did the “TRZAS Ob (Observed values, % control)” value ([1]; Compound 10 8.75 g ae/ha) turn out when COc1c(N)nc(-c2ccc(Cl)c(F)c2F)nc1C(=O)O [Compound 10, 6-amino-2-(4-chloro-2,3-difluorophenyl)-5-methoxypyrimidine-4-carboxylic acid] was run?
Answer: Its value is 45%.

Question: And the “TRZAS Ob (Observed values, % control)” value ([1]; Compound 10 17.5 g ae/ha)?
Answer: The value was 55%.

Question: What about the “TRZAS Ob (Observed values, % control)” value ([1]; Compound 10 35 g ae/ha) of the same molecule?
Answer: The value was 65%.

Question: What about the “TRZAS Ob (Observed values, % control)” value ([1]; Compound 10 70 g ae/ha) of the same molecule?
Answer: Its value is 70%.

Question: What about the “TRZAS Ob (Observed values, % control)” value ([1]; Compound 10 140 g ae/ha) of the same molecule?
Answer: The value was 75%.

Question: What about the “HORVS Ob (Observed values, % control)” value ([2]; Compound 10 8.75 g ae/ha) of the same molecule?
Answer: Its value is 25%.

Question: What about the “HORVS Ob (Observed values, % control)” value ([2]; Compound 10 17.5 g ae/ha) of the same molecule?
Answer: Its value is 30%.

Question: And the “HORVS Ob (Observed values, % control)” value ([2]; Compound 10 35 g ae/ha)?
Answer: The value was 60%.

Question: What about the “HORVS Ob (Observed values, % control)” value ([2]; Compound 10 70 g ae/ha) of the same molecule?
Answer: Its value is 75%.

Question: And the “HORVS Ob (Observed values, % control)” value ([2]; Compound 10 140 g ae/ha)?
Answer: The value was 85%.

Question: What about the “LAMPU Ob (Observed values, % control)” value ([3]; Compound 10 8.75 g ae/ha) of the same molecule?
Answer: The value was 95%.

Question: And the “LAMPU Ob (Observed values, % control)” value ([3]; Compound 10 17.5 g ae/ha)?
Answer: Its value is 95%.

Question: And the “LAMPU Ob (Observed values, % control)” value ([3]; Compound 10 35 g ae/ha)?
Answer: Its value is 100%.

Question: And the “LAMPU Ob (Observed values, % control)” value ([3]; Compound 10 70 g ae/ha)?
Answer: Its value is 100%.

Question: And the “LAMPU Ob (Observed values, % control)” value ([3]; Compound 10 140 g ae/ha)?
Answer: The value was 100%.

Question: What about the “KCHSC Ob (Observed values, % control)” value ([4]; Compound 10 8.75 g ae/ha) of the same molecule?
Answer: The value was 98%.

Question: What about the “KCHSC Ob (Observed values, % control)” value ([4]; Compound 10 17.5 g ae/ha) of the same molecule?
Answer: The value was 98%.

Question: What about the “KCHSC Ob (Observed values, % control)” value ([4]; Compound 10 35 g ae/ha) of the same molecule?
Answer: The value was 100%.

Question: And the “KCHSC Ob (Observed values, % control)” value ([4]; Compound 10 70 g ae/ha)?
Answer: The value was 100%.

Question: And the “KCHSC Ob (Observed values, % control)” value ([4]; Compound 10 140 g ae/ha)?
Answer: The value was 100%.

Question: What about the “PAPRH Ob (Observed values, % control)” value ([5]; Compound 10 8.75 g ae/ha) of the same molecule?
Answer: Its value is 100%.

Question: And the “PAPRH Ob (Observed values, % control)” value ([5]; Compound 10 17.5 g ae/ha)?
Answer: The value was 100%.

Question: What about the “PAPRH Ob (Observed values, % control)” value ([5]; Compound 10 35 g ae/ha) of the same molecule?
Answer: The value was 100%.

Question: What about the “PAPRH Ob (Observed values, % control)” value ([5]; Compound 10 70 g ae/ha) of the same molecule?
Answer: The value was 100%.

Question: And the “PAPRH Ob (Observed values, % control)” value ([5]; Compound 10 140 g ae/ha)?
Answer: The value was 100%.

Question: What about the “VERPE Ob (Observed values, % control)” value ([6]; Compound 10 8.75 g ae/ha) of the same molecule?
Answer: Its value is 93%.

Question: And the “VERPE Ob (Observed values, % control)” value ([6]; Compound 10 17.5 g ae/ha)?
Answer: Its value is 97%.

Question: What about the “VERPE Ob (Observed values, % control)” value ([6]; Compound 10 35 g ae/ha) of the same molecule?
Answer: Its value is 100%.

Question: And the “VERPE Ob (Observed values, % control)” value ([6]; Compound 10 70 g ae/ha)?
Answer: Its value is 100%.

Question: What about the “VERPE Ob (Observed values, % control)” value ([6]; Compound 10 140 g ae/ha) of the same molecule?
Answer: Its value is 100%.

Question: And the “CIRAR Ob (Observed values, % control)” value (CIRAR; Compound 10 8.75 g ae/ha)?
Answer: The value was 80%.

Question: What about the “CIRAR Ob (Observed values, % control)” value (CIRAR; Compound 10 17.5 g ae/ha) of the same molecule?
Answer: The value was 85%.

Question: What about the “CIRAR Ob (Observed values, % control)” value (CIRAR; Compound 10 35 g ae/ha) of the same molecule?
Answer: The value was 90%.

Question: What about the “CIRAR Ob (Observed values, % control)” value (CIRAR; Compound 10 70 g ae/ha) of the same molecule?
Answer: The value was 90%.

Question: What about the “CIRAR Ob (Observed values, % control)” value (CIRAR; Compound 10 140 g ae/ha) of the same molecule?
Answer: Its value is 100%.

Question: What about the “SASKR Ob (Observed values, % control)” value (SASKR; Compound 10 8.75 g ae/ha) of the same molecule?
Answer: The value was 85%.

Question: What about the “SASKR Ob (Observed values, % control)” value (SASKR; Compound 10 17.5 g ae/ha) of the same molecule?
Answer: Its value is 87%.

Question: And the “SASKR Ob (Observed values, % control)” value (SASKR; Compound 10 35 g ae/ha)?
Answer: Its value is 90%.

Question: What about the “SASKR Ob (Observed values, % control)” value (SASKR; Compound 10 70 g ae/ha) of the same molecule?
Answer: Its value is 93%.

Question: What about the “SASKR Ob (Observed values, % control)” value (SASKR; Compound 10 140 g ae/ha) of the same molecule?
Answer: The value was 95%.

Question: What about the “MATCH Ob (Observed values, % control)” value (MATCH; Compound 10 8.75 g ae/ha) of the same molecule?
Answer: The value was 70%.

Question: What about the “MATCH Ob (Observed values, % control)” value (MATCH; Compound 10 17.5 g ae/ha) of the same molecule?
Answer: Its value is 90%.

Question: And the “MATCH Ob (Observed values, % control)” value (MATCH; Compound 10 35 g ae/ha)?
Answer: The value was 93%.

Question: And the “MATCH Ob (Observed values, % control)” value (MATCH; Compound 10 70 g ae/ha)?
Answer: The value was 95%.

Question: What about the “MATCH Ob (Observed values, % control)” value (MATCH; Compound 10 140 g ae/ha) of the same molecule?
Answer: The value was 100%.

Question: What about the “SINAR Ob (Observed values, % control)” value ([7]; Compound 10 8.75 g ae/ha) of the same molecule?
Answer: The value was 100%.

Question: And the “SINAR Ob (Observed values, % control)” value ([7]; Compound 10 17.5 g ae/ha)?
Answer: The value was 100%.

Question: What about the “SINAR Ob (Observed values, % control)” value ([7]; Compound 10 35 g ae/ha) of the same molecule?
Answer: Its value is 100%.

Question: What about the “SINAR Ob (Observed values, % control)” value ([7]; Compound 10 70 g ae/ha) of the same molecule?
Answer: The value was 100%.

Question: And the “SINAR Ob (Observed values, % control)” value ([7]; Compound 10 140 g ae/ha)?
Answer: Its value is 100%.

Question: And the “VIOTR Ob (Observed values, % control)” value ([8]; Compound 10 8.75 g ae/ha)?
Answer: The value was 70%.

Question: And the “VIOTR Ob (Observed values, % control)” value ([8]; Compound 10 17.5 g ae/ha)?
Answer: Its value is 75%.

Question: What about the “VIOTR Ob (Observed values, % control)” value ([8]; Compound 10 35 g ae/ha) of the same molecule?
Answer: The value was 85%.

Question: What about the “VIOTR Ob (Observed values, % control)” value ([8]; Compound 10 70 g ae/ha) of the same molecule?
Answer: Its value is 93%.

Question: And the “VIOTR Ob (Observed values, % control)” value ([8]; Compound 10 140 g ae/ha)?
Answer: Its value is 97%.
